In patent publication US20250019387A1 (Frontier Medicines Corporation, priority 0001, published 2025):

Molecular target: KRAS G12C and cRAF (Ras-binding domain) interaction (Homo sapiens (Human), UniProt P01116, C118S/C51S/C80L/G12C)
Test: Inhibition of KRAS G12C and cRAF binding (AlphaScreen)
Details: GMPPNP-loaded KRAS G12C, 19-20 hours incubation with compound; read-out: IC50 (Inhibition of KRAS G12C and cRAF Binding)
Summary of the method: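 Compounds (DMSO) preincubated 19-20 h at room temperature, then RBD with streptavidin donor and glutathione acceptor beads added in 25 mM Hepes pH 7.4, 150 mM NaCl, 5 mM MgCl2, 0.01% Triton X-100, 2% DMSO for 60-90 min. Emission 570 nm (excitation 680 nm); IC50 by 4-parameter fit. Counter-screen used biotin-AviTag-GST instead of RBD.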

Sequence of KRAS G12C and cRAF (Ras-binding domain) interaction (P01116 other isoform, or with tags, fused parts or gaps G12C/C51S/C80L/C118S): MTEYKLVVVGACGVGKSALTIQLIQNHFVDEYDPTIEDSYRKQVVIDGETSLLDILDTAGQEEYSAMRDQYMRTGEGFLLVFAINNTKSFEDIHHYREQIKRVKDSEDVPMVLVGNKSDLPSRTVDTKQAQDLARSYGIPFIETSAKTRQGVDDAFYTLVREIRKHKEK

Row | Structure (SMILES) | IC50 [nM]
1 | CN(c1nc(OC[C@@]23CCCN2C[C@H](F)C3)nc2c(F)c(-c3cccc4cccc(Cl)c34)ncc12)[C@@H]1CCN(C(=O)/C=C/[C@H]2CCN2CC2COC2)C1 [Example 224, (E)-1-((R)-3-((7-(8-chloronaphthalen-1-yl)-8-fluoro-2-(((2R,7aS)-2-fluorotetrahydro-1H-pyrrolizin-7a(5H)-yl)methoxy)pyrido[4,3-d]pyrimidin-4-yl)(methyl)amino)pyrrolidin-1-yl)-3-((R)-1-(oxetan-3-ylmethyl)azetidin-2-yl)prop-2-en-1-one] | 10 to 100
2 | CN(c1nc(OC[C@@]23CCCN2C[C@H](F)C3)nc2c(F)c(-c3cccc4ccc(F)c(Cl)c34)ncc12)[C@@H]1CCN(C(=O)C#CCN2CC(F)C2)C1 [Example 225, 1-((R)-3-((7-(8-chloro-7-fluoronaphthalen-1-yl)-8-fluoro-2-(((2R,7aS)-2-fluorohexahydro-1H-pyrrolizin-7a-yl)methoxy)pyrido[4,3-d]pyrimidin-4-yl)(methyl)amino)pyrrolidin-1-yl)-4-(3-fluoroazetidin-1-yl)but-2-yn-1-one] | 10 to 100
3 | CN(CC1CN(C(=O)/C=C/c2nc(C(C)(C)O)no2)C1)c1nc(OCC23CCCN2CCC3)nc2c(F)c(-c3cccc4ccc(F)c(Cl)c34)ncc12 [Example 229, (E)-1-(3-(((7-(8-chloro-7-fluoronaphthalen-1-yl)-8-fluoro-2-((tetrahydro-1H-pyrrolizin-7a(5H)-yl)methoxy)pyrido[4,3-d]pyrimidin-4-yl)(methyl)amino)methyl)azetidin-1-yl)-3-(3-(2-hydroxypropan-2-yl)-1,2,4-oxadiazol-5-yl)prop-2-en-1-one] | < 10
4 | CN(c1nc(OC[C@@]23CCCN2C[C@H](F)C3)nc2c(F)c(-c3cccc4cccc(Cl)c34)ncc12)[C@@H]1CCN(C(=O)/C=C/c2ncncc2F)C1 [Example 230, (E)-1-((R)-3-((7-(8-chloronaphthalen-1-yl)-8-fluoro-2-(((2R,7aS)-2-fluorotetrahydro-1H-pyrrolizin-7a(5H)-yl)methoxy)pyrido[4,3-d]pyrimidin-4-yl)(methyl)amino)pyrrolidin-1-yl)-3-(5-fluoropyrimidin-4-yl)prop-2-en-1-one] | 10 to 100
5 | CC(C)N1CC[C@@H]1/C=C/C(=O)N1CC[C@@H](N(C)c2nc(OC[C@@]34CCCN3C[C@H](F)C4)nc3c(F)c(-c4cccc5cccc(Cl)c45)ncc23)C1 [Example 232, (E)-1-((R)-3-((7-(8-chloronaphthalen-1-yl)-8-fluoro-2-(((2R,7aS)-2-fluorotetrahydro-1H-pyrrolizin-7a(5H)-yl)methoxy)pyrido[4,3-d]pyrimidin-4-yl)(methyl)amino)pyrrolidin-1-yl)-3-((R)-1-isopropylazetidin-2-yl)prop-2-en-1-one] | 10 to 100
6 | COCCN(C)C/C=C/C(=O)N1CC[C@@H](N(C)c2nc(OC[C@@]34CCCN3C[C@H](F)C4)nc3c(F)c(-c4cccc5cccc(Cl)c45)ncc23)C1 [Example 235, (E)-1-((R)-3-((7-(8-chloronaphthalen-1-yl)-8-fluoro-2-(((2R,7aS)-2-fluorohexahydro-1H-pyrrolizin-7a-yl)methoxy)pyrido[4,3-d]pyrimidin-4-yl)(methyl)amino)pyrrolidin-1-yl)-4-((2-methoxyethyl)(methyl)amino)but-2-en-1-one] | < 10
7 | C=CC(=O)N1C[C@H](N(C)c2nc(OC[C@@]34CCCN3C[C@H](F)C4)nc3c(F)c(-c4cccc5cccc(Cl)c45)ncc23)C(F)(F)C1 [Example 239, 1-((S)-4-((7-(8-chloronaphthalen-1-yl)-8-fluoro-2-(((2R,7aS)-2-fluorotetrahydro-1H-pyrrolizin-7a(5H)-yl)methoxy)pyrido[4,3-d]pyrimidin-4-yl)(methyl)amino)-3,3-difluoropyrrolidin-1-yl)prop-2-en-1-one] | 10 to 100

Continued, values first:

Row | IC50 [nM] | Structure (SMILES)
8 | 10 to 100 | CN(c1nc(OC[C@@]23CCCN2C[C@H](F)C3)nc2c(F)c(-c3cccc4cccc(Cl)c34)ncc12)[C@@H]1CCN(C(=O)/C=C/[C@H]2CCN2CCO)C1 [Example 233, (E)-1-((R)-3-((7-(8-chloronaphthalen-1-yl)-8-fluoro-2-(((2R,7aS)-2-fluorotetrahydro-1H-pyrrolizin-7a(5H)-yl)methoxy)pyrido[4,3-d]pyrimidin-4-yl)(methyl)amino)pyrrolidin-1-yl)-3-((R)-1-(2-hydroxyethyl)azetidin-2-yl)prop-2-en-1-one]
9 | 10 to 100 | COCCN1CC[C@@H]1/C=C/C(=O)N1CC[C@@H](N(C)c2nc(OC[C@@]34CCCN3C[C@H](F)C4)nc3c(F)c(-c4cccc5cccc(Cl)c45)ncc23)C1 [Example 234, (E)-1-((R)-3-((7-(8-chloronaphthalen-1-yl)-8-fluoro-2-(((2R,7aS)-2-fluorotetrahydro-1H-pyrrolizin-7a(5H)-yl)methoxy)pyrido[4,3-d]pyrimidin-4-yl)(methyl)amino)pyrrolidin-1-yl)-3-((R)-1-(2-methoxyethyl)azetidin-2-yl)prop-2-en-1-one]
10 | 10 to 100 | C=CC(=O)N1C[C@H](F)[C@@H](N(C)c2nc(OCC34CCCN3CCC4)nc3c(F)c(-c4cccc5ccc(F)c(Cl)c45)ncc23)C1 [Example 237, 1-((3S,4S)-3-((7-(8-chloro-7-fluoronaphthalen-1-yl)-8-fluoro-2-((tetrahydro-1H-pyrrolizin-7a(5H)-yl)methoxy)pyrido[4,3-d]pyrimidin-4-yl)(methyl)amino)-4-fluoropyrrolidin-1-yl)prop-2-en-1-one]
11 | 10 to 100 | CN(c1nc(OC[C@@]23CCCN2C[C@H](F)C3)nc2c(F)c(-c3cccc4cccc(Cl)c34)ncc12)[C@@H]1CCN(C(=O)C#CC2COCCN2)C1 (stereo partly drawn) [Example 238, 1-((R)-3-((7-(8-chloronaphthalen-1-yl)-8-fluoro-2-(((2R,7aS)-2-fluorohexahydro-1H-pyrrolizin-7a-yl)methoxy)pyrido[4,3-d]pyrimidin-4-yl)(methyl)amino)pyrrolidin-1-yl)-3-(morpholin-3-yl)prop-2-yn-1-one]
12 | 100 to 500 | Cc1ncc(F)c(/C=C/C(=O)N2CC[C@@H](N(C)c3nc(OC[C@@]45CCCN4C[C@H](F)C5)nc4c(F)c(-c5cccc6cccc(Cl)c56)ncc34)C2)n1 [Example 241, (E)-1-((R)-3-((7-(8-chloronaphthalen-1-yl)-8-fluoro-2-(((2R,7aS)-2-fluorotetrahydro-1H-pyrrolizin-7a(5H)-yl)methoxy)pyrido[4,3-d]pyrimidin-4-yl)(methyl)amino)pyrrolidin-1-yl)-3-(5-fluoro-2-methylpyrimidin-4-yl)prop-2-en-1-one]
13 | < 10 | CN1CC(C)(C#CC(=O)N2CC[C@@H](N(C)c3nc(OC[C@@]45CCCN4C[C@H](F)C5)nc4c(F)c(-c5cccc6cccc(Cl)c56)ncc34)C2)C1 [Example 242, 1-((R)-3-((7-(8-chloronaphthalen-1-yl)-8-fluoro-2-(((2R,7aS)-2-fluorohexahydro-1H-pyrrolizin-7a-yl)methoxy)pyrido[4,3-d]pyrimidin-4-yl)(methyl)amino)pyrrolidin-1-yl)-3-(1,3-dimethylazetidin-3-yl)prop-2-yn-1-one]
14 | 100 to 500 | Cc1cc(/C=C/C(=O)N2CCN(c3nc(OC[C@@]45CCCN4C[C@H](F)C5)nc4c(F)c(-c5cccc6cccc(Cl)c56)ncc34)CC2)nc(C)n1 [Example 243, (E)-1-(4-(7-(8-chloronaphthalen-1-yl)-8-fluoro-2-(((2R,7aS)-2-fluorotetrahydro-1H-pyrrolizin-7a(5H)-yl)methoxy)pyrido[4,3-d]pyrimidin-4-yl)piperazin-1-yl)-3-(2,6-dimethylpyrimidin-4-yl)prop-2-en-1-one]
